From patent US9730455B2, “Composition comprising a biological control agent and an insecticide” (Bayer CropScience AG, priority 2012, dated 2017) come the findings set out here.

Holding throughout (type): in vivo
The subject of series [1] is two spotted spidermite (Tetranychus urticae), OP-resistant. The series can be described thus: Tetranychus urticae - spray test, OP-resistant. The conditions noted are these: French beans. As to the method:
(§1) Formula for the efficacy of the combination of two compounds • The expected efficacy of a given combination of two compounds is calculated as follows (see Colby, S.R., “Calculating Synergistic and antagonistic Responses of Herbicide Combinations”, Weeds 15, pp. 20-22, 1967): • If • X is the efficacy expressed in % mortality of the untreated control for test compound A at a concentration of m ppm respectively m g/ha, • Y is the efficacy expressed in % mortality of the untreated control for test compound B at a concentration of n ppm respectively n g/ha, • E is the efficacy expressed in % mortality of the untreated control using the mixture of A and B at m and n ppm respectively m and n g/ha, • then is
(§2) • Solvent: 78.0 parts by weight acetone • 1.5 parts by weight dimethylformamide • Emulsifier: alkylaryl polyglycol ether
(§3) To produce a suitable preparation of active compound, 1 part by weight of active compound is mixed with the stated amount of solvents and is diluted with water, containing an emulsifier concentration of 1000 ppm, to the desired concentration. To produce a suitable preparation of a spore suspension the spores are diluted with emulsifier containing water to the desired concentration. Further test concentrations are prepared by dilution with emulsifier containing water.
French beans (Phaseolus vulgaris) which are heavily infested with all stages of the two spotted spidermite (Tetranychus urticae), are sprayed with a preparation of the active ingredient of the desired concentration.
After the specified period of time, mortality in % is determined. 100% means all spider mites have been killed and 0% means none of the spider mites have been killed. The mortality values determined thus are recalculated using the Colby-formula (see sheet 1).

Series [2] concerns fall armyworm larvae (Spodoptera frugiperda). Nature of the series: Spodoptera frugiperda - spray test. The conditions noted are these: maize leaf sections; for mortality at 3.75 g/ha: 3.75 g ai/ha. As to the method: as §1, §2, §3
Maize (Zea mais) leaf sections are sprayed with a preparation of the active ingredient of the desired concentration. Once dry, the leaf sections are infested with fall armyworm larvae (Spodoptera frugiperda).
After the specified period of time, mortality in % is determined. 100% means all caterpillars have been killed and 0% means none of the caterpillars have been killed. The mortality values determined thus are recalculated using the Colby-formula (see sheet 1).

The subject of series [3] is mustard beetle larvae (Phaedon cochleariae). Nature of the series: Phaedon cochleariae - spray test. The conditions noted are these: foliar; for mortality at 0.8 g/ha: 0.8 g ai/ha, after 6 d. As to the method: as §1
• Solvent: 78.0 parts by weight of acetone • 1.5 parts by weight of dimethylformamide • Emulsifier: alkylaryl polyglycol ether
as §3
Chinese cabbage (Brassica pekinensis) leaf-disks are sprayed with a preparation of the active ingredient of the desired concentration. Once dry, the leaf disks are infested with mustard beetle larvae (Phaedon cochleariae).
After the specified period of time, mortality in % is determined. 100% means all beetle larvae have been killed and 0% means none of the beetle larvae have been killed. The mortality values determined thus are recalculated using the Colby-formula (see sheet 1).

For series [4], the system named is green peach aphid (Myzus persicae). Nature of the series: Myzus persicae - spray test. The settings on record: foliar, 24 h, after 1 d, Chinese cabbage leaf disks, read-out: Efficacy in % after 1^d (mortality). As to the method: as §1, §2
To produce a suitable preparation of active compound, 1 part by weight of active compound is mixed with the stated amount of solvents and is diluted with water, containing an emulsifier concentration of 1000 ppm, to the desired concentration. To produce a suitable preparation of a spore suspension the spores are diluted with emulsifier containing water to the desired concentration. […]
After the specified period of time, mortality in % is determined. […] The mortality values determined thus are recalculated using the Colby-formula (see sheet 1).

[5] abbreviates: 144 h, Chinese cabbage leaf disks, read-out: Efficacy in % after 6^d (mortality).

Where two headings read alike, the source gives them in different places.

Usually mortality stands for the share of the test organisms that died.

With Spinosad, the “Efficacy in % after 6^d (mortality)” value in series [1] (20 g ai/ha) came out at 0%; in series [2] (0.8 g ai/ha, after 6 d), 0%. Also, the “Efficacy in % after 2^d (mortality)” value in series [2] (4 g ai/ha, after 2 d) worked out at 50%.
As to `CNC(=O)Oc1cc(C)c(SC)c(C)c1` [Methiocarb], in series [3] (in Brassica rapa, 144 h, read-out: Efficacy in % after 6^d (mortality)), the mortality at 10 g/ha was 50%.
Regarding `N#C/N=C1\SCCN1Cc1ccc(Cl)nc1` [Thiacloprid], the mortality at 20 g/ha in series [1] (Tetranychus urticae, 48 h, 20 g ai/ha, after 2 d, read-out: Efficacy in % after 2^d (mortality)) worked out at 40%. Moreover, the mortality at 4 g/ha in series [4] (4 g ai/ha) came out at 0%.
Take Spinetoram: the “Efficacy in % after 6^d (mortality)” value in series [1] (0.08 g ai/ha) is 0%; in series [2] (0.032 g ai/ha, after 6 d), 0%. The “Efficacy in % after 2^d (mortality)” value in series [1] (0.4 g ai/ha, after 2 d) worked out at 0%; in series [2] (0.08 g ai/ha, after 2 d), 67%.
On to `CS/C(C)=N\OC(=O)N(C)SN(C)C(=O)O/N=C(\C)SC` [Thiodicarb], for which the mortality at 3.75 g/ha in series [2] (Spodoptera frugiperda, 48 h, after 2 d, read-out: Efficacy in % after 2^d (mortality)) is 0%; in series [2] (Spodoptera frugiperda, 144 h, after 6 d, read-out: Efficacy in % after 6^d (mortality)) it was 0%. Besides, the mortality at 7.5 g/ha in series [2] (Spodoptera frugiperda, 48 h, 7.5 g ai/ha, after 2 d, read-out: Efficacy in % after 2^d (mortality)) is 67%.
Turning to `CN1COCN(Cc2cnc(Cl)s2)/C1=N\[N+](=O)[O-]` [Thiamethoxam], the mortality at 0.8 g/ha in series [4] (0.8 g ai/ha) turned out to be 0%.
For `CN/C(=N\[N+](=O)[O-])NCc1cnc(Cl)s1` [Clothianidin], the mortality at 20 g/ha in series [2] (Spodoptera frugiperda, 144 h, 20 g ai/ha, after 6 d, read-out: Efficacy in % after 6^d (mortality)) was 0%.
With `CNC(=O)c1cc(C#N)cc(C)c1NC(=O)c1cc(Br)nn1-c1ncccc1Cl` [Cyantraniliprole], the mortality at 4 g/ha in series [3] (48 h, 4 g ai/ha, after 2 d, Chinese cabbage leaf disks, read-out: Efficacy in % after 2^d (mortality)) was found to be 0%. Moreover, in series [3] (setting [5]), the mortality at 0.8 g/ha turned out to be 0%.
As to `CNC(=O)c1cc(Cl)cc(C)c1NC(=O)c1cc(Br)nn1-c1ncccc1Cl` [Chlorantraniliprole], the mortality at 0.8 g/ha in series [2] (Spodoptera frugiperda, 48 h, 0.8 g ai/ha, after 2 d, read-out: Efficacy in % after 2^d (mortality)) was determined as 67%; in series [3] (setting [5]), 33%. In series [2] (Spodoptera frugiperda, 144 h, 0.16 g ai/ha, after 6 d, read-out: Efficacy in % after 6^d (mortality)), the mortality at 0.16 g/ha is 0%.
